In US20210061872A1 (PROTAGONIST THERAPEUTICS, published 2021):

Key:
healthy subjects = test: Phase I single dose study; assay type: in vivo, human; settings: 62 healthy subjects
From the text: Compound A is a hepcidin mimetic agent in clinical studies for multiple blood disorders.

Cynomolgus monkeys [1] = test: repeat-dose study, 13 weekly SC doses, limiting erythropoiesis; assay type: in vivo
From the text: A cohort of animals (4/sex/group) were sacrificed on Day 92 (Main), and the remaining animals (2/sex/group) were sacrificed on Day 120 following a 35-day recovery period (Recovery).

PV patients = test: Phase 2 study in phlebotomy-requiring Polycythemia vera
From the text: Eligible patients were enrolled in the 28-week dose finding part of the Phase 2 trial. […] Body iron status was quantified by monitoring serum ferritin, serum iron, transferrin saturation (TSAT), mean corpuscular volume (MCV) and mean corpuscular hemoglobin (MCH).

Cynomolgus monkeys [2] = test: PK-PD experiment, serum iron (Cobas IRON2); assay type: in vivo
Description: Iron content in plasma/serum was measured using a colorimetric assay on the Cobas c 111 according to instructions from the manufacturer of the assay (assay: IRON2: ACN 661).

PV mice = settings: cited from earlier work
human ferroportin = biological target: T1, human ferroportin (Homo sapiens, UniProt Q9NP59); test: ferroportin-GFP internalization/degradation assay in HEK293 cells; assay type: cell-based; settings: read-out: Potency EC50
T1 construct: expressed in transfected cells
T1 sequence (Q9NP59 1-571): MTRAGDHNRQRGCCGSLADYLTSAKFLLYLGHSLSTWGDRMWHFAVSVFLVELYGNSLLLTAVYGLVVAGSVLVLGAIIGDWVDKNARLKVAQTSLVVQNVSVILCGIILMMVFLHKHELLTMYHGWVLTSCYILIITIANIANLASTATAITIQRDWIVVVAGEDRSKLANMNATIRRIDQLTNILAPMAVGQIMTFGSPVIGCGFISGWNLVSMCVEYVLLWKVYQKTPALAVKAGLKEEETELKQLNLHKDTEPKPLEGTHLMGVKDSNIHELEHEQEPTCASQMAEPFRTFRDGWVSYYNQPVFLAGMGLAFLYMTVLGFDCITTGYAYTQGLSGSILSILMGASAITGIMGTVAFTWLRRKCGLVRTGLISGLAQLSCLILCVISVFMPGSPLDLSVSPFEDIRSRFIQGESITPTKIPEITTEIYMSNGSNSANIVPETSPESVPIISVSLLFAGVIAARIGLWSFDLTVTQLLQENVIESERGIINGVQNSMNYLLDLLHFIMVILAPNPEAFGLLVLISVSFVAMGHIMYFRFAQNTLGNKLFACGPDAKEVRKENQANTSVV

[3] = tested on: patients with phlebotomy-dependent PV and splenomegaly; settings: through week 32; 6 events with BAT; cited from earlier work
[4] = biological target: T2, human ferroportin (SLC40A1) fused in frame with GFP, stably expressed on HEK293 cells (human, UniProt Q9NP59 1-571); test: cell-based or functional assay
T2 sequence (looked up): T1 sequence (Q9NP59 1-571)

[5] = SC doses of 10 mg to 80 mg, various times after dosing

Molecule: CCCCCCCCCCCCCCCC(=O)N[C@@H](CCC(=O)NCCCC[C@@H]1NC(=O)[C@H]([C@@H](C)CC)NC(=O)[C@@H](NC(=O)[C@@H]2CCCN2C(=O)[C@H](Cc2ccccc2)NC(=O)[C@H](Cc2c[nH]cn2)NC(=O)[C@@H](NC(=O)[C@H](CC(=O)O)NC(=O)CC(C)C)[C@@H](C)O)CSSC[C@@H](C(=O)N[C@@H](CCCCN)C(N)=O)NC(=O)CNC(=O)[C@H](CCCCN)NC(=O)[C@H](CO)NC(=O)[C@H](CCCNC(=N)N)NC(=O)[C@@H]2CCCN2C(=O)[C@H](CCC(=O)O)NC(=O)[C@H](Cc2ccccc2)NC1=O)C(=O)O [Compound A]
- adverse events (healthy subjects): without significant adverse events
- platelets (Cynomolgus monkeys [1]; 6 mg/kg/dose, male and female, FIG. 5): significantly elevated levels of platelets
- total bilirubin (tBili) (Cynomolgus monkeys [1]; at ≥2 mg/kg/day, treatment period, FIG. 4): increase in total bilirubin
- bone marrow (femur, sternum) findings (Cynomolgus monkeys [1]; at ≥2 mg/kg/dose): hematopoietic hypercellularity occurred in bone marrow
- liver and spleen findings (Cynomolgus monkeys [1]; at ≥2 mg/kg/dose): extramedullary hematopoiesis and hemosiderin deposition was observed in the liver and spleen
- most frequent adverse events (PV patients; 10-80 mg SC weekly): injection site reaction (ISR) reported by three patients
- tolerability (PV patients; 10-80 mg SC weekly): well tolerated
- plasma concentrations of Compound A, lower end of range (below detectable) (PV patients; [5]): < 2 ng/mL
- plasma concentrations of Compound A, upper end of range (PV patients; [5]): 866 ng/mL
- platelet counts (PV patients; over the course of treatment, FIG. 14): remained generally steady
- leukocyte count (PV patients; over the course of treatment, FIG. 16): remained generally steady
- grade of most injection site reactions (PV patients; transient, no patient discontinued): 1-2 grade

Molecule: Isovaleric acid-DTHFPCIKF(K(PEG11-Palm))PRSK[Sar]CK-NH2 [Compound B]
- time of maximal serum iron reduction (Cynomolgus monkeys [2]; 2.93 mg/kg SC): about 12 hour
- serum iron reduction, lower than pre-dose levels (Cynomolgus monkeys [2]; 2.93 mg/kg SC, at about 12 hour): 12 fold
- serum concentrations having maximum effect on serum iron (Cynomolgus monkeys [2]; SC single dose): 50 to 125 ng/mL
- serum concentrations that were effective on serum iron (Cynomolgus monkeys [2]; SC single dose): 25 to 125 ng/mL

Molecule: minihepcidin: hepcidin mimetic administered to PV mice in Casu et al., Blood 2016 (DTHFPICIF)
- hematocrit (PV mice): normalizes hematocrit
- splenomegaly (PV mice): significantly reduces splenomegaly

Molecule: CC[C@@H](C)[C@@H](NC(=O)[C@H](N)Cc1ccccc1)C(=O)N[C@H](CS)C(=O)N[C@@H](C(=O)N1CCC[C@@H]1C(=O)N[C@H](Cc1ccccc1)C(=O)N[C@H](Cc1c[nH]cn1)C(=O)N[C@@H](C(=O)N[C@H](CC(=O)O)C(N)=O)[C@H](C)O)[C@H](C)CC [RI-Mini Hepcidin, Hy-DPhe-DIle-DCys-DIle-DPro-DPhe-DHis-DThr-DAsp-NH2]
- EC50 (human ferroportin): > 10 µM

Molecule: N#CC[C@H](C1CCCC1)n1cc(-c2ncnc3[nH]ccc23)cn1 [ruxolitinib]
- thromboembolic events [3]: 1 event

Molecule: H-DTHFPICIF-NH2 [Mini-Hepcidin]
- Potency EC50 (nM); ferroportin internalization/degradation, decrease in GFP fluorescence of ferroportin-GFP HEK293 cells [4]: 712 nM

B1: RI-Mini Hepcidin (peptide)
peptide: FICIPFHTD
modifications: all residues are D-amino acids (Hy-DPhe-DIle-DCys-DIle-DPro-DPhe-DHis-DThr-DAsp-NH2); C-terminal amide
- Potency EC50 (nM); ferroportin internalization/degradation, decrease in GFP fluorescence of ferroportin-GFP HEK293 cells [4]: > 10000 nM
